Assay results: patent US12576052B2, “Metformin inhalation powder aerosol for treating idiopathic pulmonary fibrosis and preparation method thereof” (Wenzhou Medical University, priority 2022, dated 2026)

Assays:
[1] = tested on: mice with pulmonary fibrosis; test: Bleomycin-induced pulmonary fibrosis mouse model: body weight, macroscopic lung damage, HE and Masson staining; assay type: in vivo, C57BL6 mice; conditions: inhalation powder aerosol of Embodiment 2, 5 mg per mouse every day for 3 weeks
Method: Establishment of pulmonary fibrosis model: C57BL6 mice aged 6-8 weeks are selected and adapted for one week. Bleomycin (3 mg/kg/50 μl) is given orally to mice in BLM group and BLM+Met group on the first day, and the dry powder of bleomycin is prepared to the required concentration with sterile phosphate buffer saline non-surgical method of bleomycin orally injected into mice's lungs: mice are anesthetized with isoflurane and hung on the operating board at 70°. Bleomycin is dripped orally using a 200 μl pipette).
Dosage of inhaled metformin: the reference value of local administration concentration of metformin in upper respiratory tract is 200 mg/kg. According to the weight of 25 g per mouse, each mouse inhales 5 mg of metformin inhalation powder aerosol in Embodiment 2 every day for 3 weeks.
Weighing: weights of the mice are weighed at a fixed time every morning and recorded, and the changes of mice's weight are observed at different times in each group.
Hematoxylin Eosin (HE) staining and Masson staining: the lung tissue of mice is fixed in 4% paraformaldehyde for 24 hours, washed overnight with running water, dehydrated by conventional alcohol, embedded in paraffin, cut into 5-micron slides, stained with HE and Masson, and sealed with neutral gum after applying xylene for transparency. The pathological changes of lung are observed under optical microscope and photos are taken.
Statistical analysis: the experimental data of each group are statistically analyzed by GraphpadPrism9.0 software. All the experimental data are tested for normality, and the measurement data are expressed as mean±standard deviation. The mean of multiple groups of samples is compared by One-way Analysis of Variance (one-way ANOVA). P<0.05 is statistically significant. The results are shown in FIG. 5A, FIG. 5B, FIG. 6 and FIG. 7.

α-SMA = α-SMA immunofluorescence of lung tissue in bleomycin-induced pulmonary fibrosis mice; assay type: in vivo, C57BL6 mice; conditions: BLM+Met vs BLM group; inhalation powder aerosol of Embodiment 2, 5 mg per mouse every day for 3 weeks; FIG. 7
Method: Among them, BLM: bleomycin-induced pulmonary fibrosis mouse model group; BLM+Met: the effect of atomization inhalation of metformin on macroscopic damage of lung in mice with pulmonary fibrosis.
Dosage of inhaled metformin: the reference value of local administration concentration of metformin in upper respiratory tract is 200 mg/kg. […]
α-SMA immunofluorescence: lung tissue slides are dried at 65° C., dewaxed with xylene and dehydrated with gradient alcohol. […] The slides are sealed and the fluorescence intensity is observed under a fluorescence microscope.
Statistical analysis: the experimental data of each group are statistically analyzed by GraphpadPrism9.0 software. All the experimental data are tested for normality, and the measurement data are expressed as mean±standard deviation. […]

[2] = mouse, in vivo
Text: (§1) According to the experimental results and the conversion rules of equivalent dose between different species (as shown in table 3), the no observable adverse effect level (NOAEL) of mice is converted into the human equivalent dose HED.
(§2) Among them, NOAEL: no observable adverse effect level dose obtained through animal preclinical toxicology research; HED: human equivalent dose.

[3] = NOAEL of mice and conversion into human equivalent dose (HED)
Text: as §1, §2

IPF patients = conditions: after 52 weeks of treatment; cited from earlier work

Row | SMILES | alveolar structure (Masson and HE staining) ([1]; BLM+Met group, FIG. 6) | inflammatory cells in alveolar cavity and alveolar septum ([1]; BLM+Met group, FIG. 6) | body weight of mice with pulmonary fibrosis ([1]; BLM+Met vs BLM group, FIG. 5A) | macroscopic damage of lung ([1]; BLM+Met vs BLM group, FIG. 5B) | collagen fibers (Masson and HE staining) ([1]; BLM+Met vs BLM group, FIG. 6) | degree of fibrosis (Masson and HE staining) ([1]; BLM+Met vs BLM group, FIG. 6) | expression of α-SMA (immunofluorescence) (α-SMA) | maximum recommended initial inhalation dose for the first human study [2] [mg] | NOAEL at 3 weeks ([3]; C57BL6, mouse, in vivo, inhaled or intranasal, 200 mg/kg) [mg/kg] | HED (human equivalent dose) ([3]; NOAEL of mice/12.3) [mg/kg] | disease progression of IPF patients (IPF patients)
1 | CN(C)C(=N)N=C(N)N [Metformin, metformin] | complete | no obvious inflammatory cells | decreased | pink, with smooth surface and elastic touch | significantly reduced | significantly improved | decreased significantly | 97.8 | 200 | 16.3 | 
2 | Cc1ccc(=O)n(-c2ccccc2)c1 [pirfenidone] |  |  |  |  |  |  |  |  |  |  | effectively slow down the disease progression
